Experimental data published in the supplement of paper PMC8149375.
Blank lines part the entries; values can stand above or below the compound they belong to.

Assays:
Conditions in all cases: treatment: drug + dasatinib (fixed dose, not stated); 5 days
UO-31 [1] = experiment: minimum viability across doses, drug + dasatinib, relative to DMSO (fraction); higher = less growth inhibition
Method: (§1)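 Primary HTS combination arm: 8 RCC cell lines treated with 8 doses (up to 10 uM) of each library drug plus a fixed dose of dasatinib (dose not stated) for 5 days; viability read by CellTiter-Glo and normalised to DMSO. GI50 was fitted with XLfit, AUC is the area under the dose-response curve, and minimum viability is the lowest fraction of DMSO viability across doses.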

SN12C [2] = experiment: as above
Method: as §1

CAKI-1 [3] = experiment: as above
Method: as §1

TK-10 [4] = experiment: as above
Method: as §1

ACHN [5] = experiment: as above
Method: as §1

A498 [6] = experiment: as above
Method: as §1

769-P [7] = experiment: as above
Method: as §1

786-O [8] = experiment: as above
Method: as §1

UO-31 [9] = experiment: AUC of dose-response viability curve, drug + dasatinib, normalised to DMSO (arbitrary (AUC of normalised viability)); higher = less growth inhibition
Method: as §1

SN12C [10] = experiment: as above
Method: as §1

CAKI-1 [11] = experiment: as above
Method: as §1

TK-10 [12] = experiment: as above
Method: as §1

ACHN [13] = experiment: as above
Method: as §1

A498 [14] = experiment: as above
Method: as §1

769-P [15] = experiment: as above
Method: as §1

786-O [16] = experiment: as above
Method: as §1

UO-31 [17] = experiment: GI50 of drug in presence of dasatinib; higher = less potent
Method: as §1

SN12C [18] = experiment: as above
Method: as §1

CAKI-1 [19] = experiment: as above
Method: as §1

TK-10 [20] = experiment: as above
Method: as §1

ACHN [21] = experiment: as above
Method: as §1

A498 [22] = experiment: as above
Method: as §1

769-P [23] = experiment: as above
Method: as §1

786-O [24] = experiment: as above
Method: as §1

- GI50 of drug (ACHN [21]): 2 µM
- GI50 of drug (786-O [24]): > 10 µM
SMILES: COc1ccc(C2=NC(c3ccc(Cl)cc3)C(c3ccc(Cl)cc3)N2C(=O)N2CCNC(=O)C2)c(OC(C)C)c1 (configuration not stated) [Nutlin-3] + Cc1nc(Nc2ncc(C(=O)Nc3c(C)cccc3Cl)s2)cc(N2CCN(CCO)CC2)n1 [dasatinib]
- minimum viability across doses (UO-31 [1]): 0.583
- minimum viability across doses (SN12C [2]): 0.712
- minimum viability across doses (CAKI-1 [3]): 0.168
- minimum viability across doses (TK-10 [4]): 0.665
- minimum viability across doses (ACHN [5]): 0.2
- minimum viability across doses (A498 [6]): 0.905
- minimum viability across doses (769-P [7]): 0.519
- minimum viability across doses (786-O [8]): 0.707
- AUC of dose-response viability curve (UO-31 [9]): 4.46
- AUC of dose-response viability curve (SN12C [10]): 2.62
- AUC of dose-response viability curve (CAKI-1 [11]): 2.15
- AUC of dose-response viability curve (TK-10 [12]): 2.5
- AUC of dose-response viability curve (ACHN [13]): 1.89
- AUC of dose-response viability curve (A498 [14]): 3.61
- AUC of dose-response viability curve (769-P [15]): 2.54
- AUC of dose-response viability curve (786-O [16]): 2.83
- GI50 of drug (UO-31 [17]): > 10 µM
- GI50 of drug (SN12C [18]): > 10 µM
- GI50 of drug (CAKI-1 [19]): 2.42 µM
- GI50 of drug (TK-10 [20]): > 10 µM
- GI50 of drug (A498 [22]): > 10 µM
- GI50 of drug (769-P [23]): > 10 µM

- GI50 of drug (ACHN [21]): 0.322 µM
- GI50 of drug (786-O [24]): 0.252 µM
SMILES: COc1cccc2cc(-c3nc([C@H]4CC[C@H](C(=O)O)CC4)n4ncnc(N)c34)[nH]c12 [OSI-027] + Cc1nc(Nc2ncc(C(=O)Nc3c(C)cccc3Cl)s2)cc(N2CCN(CCO)CC2)n1 [dasatinib]
- minimum viability across doses (UO-31 [1]): 0.00633
- minimum viability across doses (SN12C [2]): 0.15
- minimum viability across doses (CAKI-1 [3]): 0.0226
- minimum viability across doses (TK-10 [4]): 0.152
- minimum viability across doses (ACHN [5]): 0.0877
- minimum viability across doses (A498 [6]): 0.139
- minimum viability across doses (769-P [7]): 0.227
- minimum viability across doses (786-O [8]): 0.0675
- AUC of dose-response viability curve (UO-31 [9]): 2.91
- AUC of dose-response viability curve (SN12C [10]): 2.05
- AUC of dose-response viability curve (CAKI-1 [11]): 1.65
- AUC of dose-response viability curve (TK-10 [12]): 2.23
- AUC of dose-response viability curve (ACHN [13]): 1.67
- AUC of dose-response viability curve (A498 [14]): 3.08
- AUC of dose-response viability curve (769-P [15]): 2.25
- AUC of dose-response viability curve (786-O [16]): 1.84
- GI50 of drug (UO-31 [17]): 2.24 µM
- GI50 of drug (SN12C [18]): 1.11 µM
- GI50 of drug (CAKI-1 [19]): 0.341 µM
- GI50 of drug (TK-10 [20]): 1.1 µM
- GI50 of drug (A498 [22]): 4.02 µM
- GI50 of drug (769-P [23]): 2.38 µM

- GI50 of drug (ACHN [21]): 0.0231 µM
- GI50 of drug (786-O [24]): < 0.003 µM
SMILES: C#Cc1cccc(Nc2ncnc3cc(OCCOC)c(OCCO)cc23)c1.Cl [OSI-420 (Desmethyl Erlotinib)] + Cc1nc(Nc2ncc(C(=O)Nc3c(C)cccc3Cl)s2)cc(N2CCN(CCO)CC2)n1 [dasatinib]
- minimum viability across doses (UO-31 [1]): 0.325
- minimum viability across doses (SN12C [2]): 0.442
- minimum viability across doses (CAKI-1 [3]): 0.11
- minimum viability across doses (TK-10 [4]): 0.379
- minimum viability across doses (ACHN [5]): 0.0775
- minimum viability across doses (A498 [6]): 0.761
- minimum viability across doses (769-P [7]): 0.226
- minimum viability across doses (786-O [8]): 0.403
- AUC of dose-response viability curve (UO-31 [9]): 3.77
- AUC of dose-response viability curve (SN12C [10]): 2.36
- AUC of dose-response viability curve (CAKI-1 [11]): 1.93
- AUC of dose-response viability curve (TK-10 [12]): 2.18
- AUC of dose-response viability curve (ACHN [13]): 1.35
- AUC of dose-response viability curve (A498 [14]): 3.08
- AUC of dose-response viability curve (769-P [15]): 1.96
- AUC of dose-response viability curve (786-O [16]): 2.22
- GI50 of drug (UO-31 [17]): 8.63 µM
- GI50 of drug (SN12C [18]): > 10 µM
- GI50 of drug (CAKI-1 [19]): 1.07 µM
- GI50 of drug (TK-10 [20]): 2.32 µM
- GI50 of drug (A498 [22]): > 10 µM
- GI50 of drug (769-P [23]): 0.51 µM
